Experimental data from patent US10167262B2, “Herbicidal substituted 3-arylpyrazoles” (FMC CORPORATION, priority 2014, dated 2019).

Key:
Assay type in all cases: in vivo
kochia (Kochia scoparia) = experiment: Test C postemergence greenhouse test, plant response rating 0-100
In short: (§1)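 Postemergence spray onto 1–4-leaf potted seedlings, greenhouse incubation 13–15 days. Visual percent-control rating (0–100) against untreated plants.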

[1] = test system: chickweed (common chickweed, Stellaria media); experiment: as above
In short: as §1

wild oat (Avena fatua) = experiment: as above
In short: as §1

[2] = test system: winter wheat (Triticum aestivum); experiment: Test C pre-/postemergence greenhouse test, plant response rating 0-100; conditions: Postemergence
In short: (§2)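 Visual 0–100 control scores, taken 13 to 15 days post-application in a greenhouse, reflect treatment preemergence (seed in loam soil with sand) or postemergence (2–18 cm plants in peat moss, vermiculite medium). A dash marks no result.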

[3] = test system: pigweed (Amaranthus retroflexus); experiment: as above; conditions: Postemergence
In short: as §2

[4] = test system: yellow nutsedge (Cyperus esculentus); experiment: as above; conditions: Postemergence
In short: as §2

corn (Zea mays) = experiment: as above; conditions: Postemergence
In short: as §2

[5] = test system: giant foxtail (Setaria faberii); experiment: as above; conditions: Postemergence
In short: as §2

[6] = test system: large (Lg) crabgrass (Digitaria sanguinalis); experiment: as above; conditions: Postemergence
In short: as §2

soybean (Glycine max) = experiment: as above; conditions: Postemergence
In short: as §2

[7] = test system: johnsongrass (Sorghum halepense); experiment: as above; conditions: Postemergence
In short: as §2

[8] = test system: lambsquarters (Chenopodium album); experiment: as above; conditions: Postemergence
In short: as §2

[9] = test system: blackgrass (Alopecurus myosuroides); experiment: as above; conditions: Postemergence;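 also: 0 is no effect and 100 is complete control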
In short: as §2

CCCn1cc(C(=O)c2ccccc2)c(-c2cc(Cl)cc(Cl)c2)n1 [Compound 61, [3-(3,5-dichlorophenyl)-1-propyl-1H-pyrazol-4-yl]phenylmethanone]
pest or weed control at 62 g/ha (kochia (Kochia scoparia); Bassia scoparia, post-emergence, 62 g ai/ha): 40%
pest or weed control at 125 g/ha (kochia (Kochia scoparia); Bassia scoparia, post-emergence, 125 g ai/ha): 45%
pest or weed control at 250 g/ha (kochia (Kochia scoparia); Bassia scoparia, post-emergence, 250 g ai/ha, scale 0 to 100): 50%
pest or weed control at 31 g/ha ([1]; Stellaria media, post-emergence, 31 g ai/ha): 20%
pest or weed control at 125 g/ha ([1]; Stellaria media, post-emergence, 125 g ai/ha): 75%
pest or weed control at 250 g/ha ([1]; Stellaria media, post-emergence, 250 g ai/ha, scale 0 to 100): 75%
pest or weed control at 62 g/ha (wild oat (Avena fatua); Avena fatua, post-emergence, 62 g ai/ha): 0%
pest or weed control at 125 g/ha (wild oat (Avena fatua); Avena fatua, post-emergence, 125 g ai/ha): 0%
pest or weed control at 250 g/ha (wild oat (Avena fatua); Avena fatua, post-emergence, 250 g ai/ha, scale 0 to 100): 0%
plant injury at 62 g/ha ([2]; Triticum aestivum, post-emergence, 62 g ai/ha, read-out: Plant response rating (0 to 100), Wheat): 0%
plant injury at 125 g/ha ([2]; Triticum aestivum, post-emergence, 125 g ai/ha, read-out: Plant response rating (0 to 100), Wheat): 0%
plant injury at 250 g/ha ([2]; Triticum aestivum, post-emergence, 250 g ai/ha, scale 0 to 100): 0%
pest or weed control at 62 g/ha ([3]; Amaranthus retroflexus, post-emergence, 62 g ai/ha, read-out: Plant response rating (0 to 100), Pigweed): 100%
pest or weed control at 125 g/ha ([3]; Amaranthus retroflexus, post-emergence, 125 g ai/ha, read-out: Plant response rating (0 to 100), Pigweed): 100%
pest or weed control at 250 g/ha ([3]; Amaranthus retroflexus, post-emergence, 250 g ai/ha, scale 0 to 100): 100%
pest or weed control at 62 g/ha ([4]; Cyperus, post-emergence, 62 g ai/ha, read-out: Plant response rating (0 to 100), Nutsedge, Yellow): 0%
pest or weed control at 125 g/ha ([4]; Cyperus, post-emergence, 125 g ai/ha, read-out: Plant response rating (0 to 100), Nutsedge, Yellow): 5%
pest or weed control at 250 g/ha ([4]; Cyperus, post-emergence, 250 g ai/ha, scale 0 to 100): 5%
plant injury at 31 g/ha (corn (Zea mays); Zea mays, post-emergence, 31 g ai/ha): 5%
plant injury at 62 g/ha (corn (Zea mays); Zea mays, post-emergence, 62 g ai/ha): 5%
plant injury at 125 g/ha (corn (Zea mays); Zea mays, post-emergence, 125 g ai/ha): 5%
Corn plant response rating (crop injury, 0 = no effect, 100 = complete kill) at 250 g/ha (corn (Zea mays); Zea mays, post-emergence, 250 g ai/ha, scale 0 to 100): 5%
pest or weed control at 31 g/ha ([5]; Setaria faberi, post-emergence, 31 g ai/ha, read-out: Plant response rating (0 to 100), Foxtail, Giant): 5%
pest or weed control at 62 g/ha ([5]; Setaria faberi, post-emergence, 62 g ai/ha, read-out: Plant response rating (0 to 100), Foxtail, Giant): 5%
pest or weed control at 125 g/ha ([5]; Setaria faberi, post-emergence, 125 g ai/ha, read-out: Plant response rating (0 to 100), Foxtail, Giant): 5%
pest or weed control at 250 g/ha ([5]; Setaria faberi, post-emergence, 250 g ai/ha, scale 0 to 100): 10%
pest or weed control at 31 g/ha ([6]; Digitaria sanguinalis, post-emergence, 31 g ai/ha, read-out: Plant response rating (0 to 100), Crabgrass, Large): 5%
pest or weed control at 62 g/ha ([6]; Digitaria sanguinalis, post-emergence, 62 g ai/ha, read-out: Plant response rating (0 to 100), Crabgrass, Large): 5%
pest or weed control at 125 g/ha ([6]; Digitaria sanguinalis, post-emergence, 125 g ai/ha, read-out: Plant response rating (0 to 100), Crabgrass, Large): 5%
pest or weed control at 250 g/ha ([6]; Digitaria sanguinalis, post-emergence, 250 g ai/ha, scale 0 to 100): 5%
plant injury at 62 g/ha (soybean (Glycine max); Glycine max, post-emergence, 62 g ai/ha, read-out: Plant response rating (0 to 100), Soybean): 0%
plant injury at 125 g/ha (soybean (Glycine max); Glycine max, post-emergence, 125 g ai/ha, read-out: Plant response rating (0 to 100), Soybean): 10%
plant injury at 250 g/ha (soybean (Glycine max); Glycine max, post-emergence, 250 g ai/ha, scale 0 to 100): 15%
pest or weed control at 62 g/ha ([7]; Sorghum halepense, post-emergence, 62 g ai/ha, read-out: Plant response rating (0 to 100), Johnsongrass): 10%
pest or weed control at 125 g/ha ([7]; Sorghum halepense, post-emergence, 125 g ai/ha, read-out: Plant response rating (0 to 100), Johnsongrass): 10%
pest or weed control at 250 g/ha ([7]; Sorghum halepense, post-emergence, 250 g ai/ha, scale 0 to 100): 10%
pest or weed control at 62 g/ha ([8]; Chenopodium album, post-emergence, 62 g ai/ha, read-out: Plant response rating (0 to 100), Lambsquarters): 40%
pest or weed control at 125 g/ha ([8]; Chenopodium album, post-emergence, 125 g ai/ha, read-out: Plant response rating (0 to 100), Lambsquarters): 55%
pest or weed control at 250 g/ha ([8]; Chenopodium album, post-emergence, 250 g ai/ha, scale 0 to 100): 55%
pest or weed control at 31 g/ha ([9]; Alopecurus myosuroides, post-emergence, 31 g ai/ha, read-out: Plant response rating (0 to 100), Blackgrass): 0%
pest or weed control at 62 g/ha ([9]; Alopecurus myosuroides, post-emergence, 62 g ai/ha, read-out: Plant response rating (0 to 100), Blackgrass): 0%
pest or weed control at 125 g/ha ([9]; Alopecurus myosuroides, post-emergence, 125 g ai/ha, read-out: Plant response rating (0 to 100), Blackgrass): 0%
pest or weed control at 250 g/ha ([9]; Alopecurus myosuroides, post-emergence, 250 g ai/ha, scale 0 to 100): 0%

Clc1cc(Cl)cc(-c2n[nH]cc2C(=NNc2ccccc2Cl)c2ccccc2)c1 [Compound 66]
Plant response rating (0 to 100), Kochia (kochia (Kochia scoparia); 62 g ai/ha): 60
Plant response rating (0 to 100), Kochia (kochia (Kochia scoparia); 125 g ai/ha): 65
Plant response rating, Kochia (kochia (Kochia scoparia); 250 g ai/ha, scale 0 to 100): 75
Plant response rating, Kochia (kochia (Kochia scoparia); 500 g ai/ha, scale 0 to 100): 95
Plant response rating (0 to 100), Chickweed ([1]; 62 g ai/ha): 100
Plant response rating (0 to 100), Chickweed ([1]; 125 g ai/ha): 100
Plant response rating, Chickweed ([1]; 250 g ai/ha, scale 0 to 100): 100
Plant response rating, Chickweed ([1]; 500 g ai/ha, scale 0 to 100): 100
Plant response rating (0 to 100), Oat, Wild (wild oat (Avena fatua); 62 g ai/ha): 0
Plant response rating (0 to 100), Oat, Wild (wild oat (Avena fatua); 125 g ai/ha): 0
Plant response rating, Oat, Wild (wild oat (Avena fatua); 250 g ai/ha, scale 0 to 100): 0
Plant response rating, Oat, Wild (wild oat (Avena fatua); 500 g ai/ha, scale 0 to 100): 0
Plant response rating (0 to 100), Wheat ([2]; 62 g ai/ha): 0
Plant response rating (0 to 100), Wheat ([2]; 125 g ai/ha): 0
Plant response rating, Wheat ([2]; 250 g ai/ha, scale 0 to 100): 0
Plant response rating, Wheat ([2]; 500 g ai/ha, scale 0 to 100): 0
Plant response rating (0 to 100), Pigweed ([3]; 62 g ai/ha): 55
Plant response rating (0 to 100), Pigweed ([3]; 125 g ai/ha): 85
Plant response rating, Pigweed ([3]; 250 g ai/ha, scale 0 to 100): 95
Plant response rating, Pigweed ([3]; 500 g ai/ha, scale 0 to 100): 100
Plant response rating (0 to 100), Nutsedge, Yellow ([4]; 62 g ai/ha): 0
Plant response rating (0 to 100), Nutsedge, Yellow ([4]; 125 g ai/ha): 0
Plant response rating, Nutsedge, Yellow ([4]; 250 g ai/ha, scale 0 to 100): 0
Plant response rating, Nutsedge, Yellow ([4]; 500 g ai/ha, scale 0 to 100): 0
Plant response rating (0 to 100), Corn (corn (Zea mays); 62 g ai/ha): 0
Plant response rating (0 to 100), Corn (corn (Zea mays); 125 g ai/ha): 0
Plant response rating, Corn (corn (Zea mays); 250 g ai/ha, scale 0 to 100): 5
Plant response rating, Corn (corn (Zea mays); 500 g ai/ha, scale 0 to 100): 5
Plant response rating (0 to 100), Foxtail, Giant ([5]; 62 g ai/ha): 0
Plant response rating (0 to 100), Foxtail, Giant ([5]; 125 g ai/ha): 0
Plant response rating, Foxtail, Giant ([5]; 250 g ai/ha, scale 0 to 100): 0
Plant response rating, Foxtail, Giant ([5]; 500 g ai/ha, scale 0 to 100): 0
Plant response rating (0 to 100), Crabgrass, Large ([6]; 62 g ai/ha): 0
Plant response rating (0 to 100), Crabgrass, Large ([6]; 125 g ai/ha): 0
Plant response rating, Crabgrass, Large ([6]; 250 g ai/ha, scale 0 to 100): 0
Plant response rating, Crabgrass, Large ([6]; 500 g ai/ha, scale 0 to 100): 0
Plant response rating (0 to 100), Soybean (soybean (Glycine max); 62 g ai/ha): 0
Plant response rating (0 to 100), Soybean (soybean (Glycine max); 125 g ai/ha): 0
Plant response rating, Soybean (soybean (Glycine max); 250 g ai/ha, scale 0 to 100): 0
Plant response rating, Soybean (soybean (Glycine max); 500 g ai/ha, scale 0 to 100): 5
Plant response rating (0 to 100), Johnsongrass ([7]; 62 g ai/ha): 0
Plant response rating (0 to 100), Johnsongrass ([7]; 125 g ai/ha): 0
Plant response rating, Johnsongrass ([7]; 250 g ai/ha, scale 0 to 100): 0
Plant response rating, Johnsongrass ([7]; 500 g ai/ha, scale 0 to 100): 0
Plant response rating (0 to 100), Lambsquarters ([8]; 62 g ai/ha): 40
Plant response rating (0 to 100), Lambsquarters ([8]; 125 g ai/ha): 50
Plant response rating, Lambsquarters ([8]; 250 g ai/ha, scale 0 to 100): 90
Plant response rating, Lambsquarters ([8]; 500 g ai/ha, scale 0 to 100): 90
Plant response rating (0 to 100), Blackgrass ([9]; 62 g ai/ha): 0
Plant response rating (0 to 100), Blackgrass ([9]; 125 g ai/ha): 0
Plant response rating, Blackgrass ([9]; 250 g ai/ha, scale 0 to 100): 0
Plant response rating, Blackgrass ([9]; 500 g ai/ha, scale 0 to 100): 0
